Test results published in patent publication US6582961B1, “Methods of protecting plants from pathogens” (priority 1998, dated 2003).

Experiments:
Assay type in all cases: in vivo, Phaseolus vulgaris
[1] = system: phenylalanine ammonia lyase (PAL) mRNA; experiment: Northern blot of phenylalanine ammonia lyase (PAL) mRNA in sprayed bean plants
Method: FIG. 2 is a northern blot of RNA probed for expression of phenylalanine ammonia lyase (“PAL”). RNA was extracted from 14 day-old red kidney bean plants 24 hours after leaves of the plants were sprayed until wet with one of four treatments. Lane 1: water-only control. Lane 2: treatment with 3,500 ppm of PAA. Lane 3: treatment with 10,000 ppm of PAA. Lane 4: treatment with 3,500 ppm of PAA plus 200 ppm of inducer mixture.
Bean plants were grown and treated in the same manner as in the previous Example, except that a water-only control was run, but not a test of systemic inducer without PAA. Total RNA was extracted and gels were loaded, run, and analyzed following the procedures discussed in previous Example, with the exception that no lane was run containing RNA from plants sprayed with a systemic inducer without an ROS present. Probe for PAL mRNA transcripts was prepared following the procedures set forth in Blee, K. A., and Anderson, A. J. “Defense-related transcript accumulation in Phaseolus vulgaris L. colonized by the arbuscular mycorrhizal fungus Glomus intraradices Schenck & Smith.” Plant Physiol. 110: 675-688 (1996).

[2] = system: PR-1a gene RNA expression; experiment: Northern blot of PR-1a RNA in sprayed red kidney bean plants
Method: FIG. 1 is a northern blot of RNA probed for expression of PR-1a protein. RNA was extracted from 14 day-old red kidney bean plants 24 hours after leaves of the plants were sprayed until wet with one of five treatments. Lane 1: treatment with 3,500 ppm of peracetic acid (“PAA”). Lane 2: treatment with 10,000 ppm of PAA. Lane 3: treatment with 3,500 ppm of PAA plus 200 ppm of salicylic acid/humic acid mixture (see Example 1; hereafter “inducer mixture”). Lane 4: treatment with 10,000 ppm of PAA and 200 ppm of inducer mixture. Lane 5: treatment with 200 ppm inducer mixture, without PAA.
Fourteen-day old red kidney bean plants (Phaseolus vulgaris) were sprayed from an overhead boom until the leaves were wet and spray began to run off them. […]
The plants were then left for 24 hours, after which the leaves were subjected to extraction of their total RNA by the procedure described in Logemann, J., et al, “Improved method for the isolation of RNA from plant tissues.” Anal Biochem. 163:16-20 (1987). […] Hybridization was observed and analyzed by chemiluminescent detection of the bound probes using the “Genius System,” (Boehringer Mannheim Corporation, Indianapolis, Ind.), following the manufacturer's directions. […]

[3] = system: hydroxyproline-rich glycoprotein (HYP) RNA; experiment: Northern blot of hydroxyproline-rich glycoprotein (HYP) RNA in sprayed bean plants
Method: FIG. 3 is a northern blot of RNA probed for expression of hydroxyproline-rich glycoproteins (“HPRG” or “HYP”). RNA was extracted from 14 day-old red kidney bean plants 24 hours after leaves of the plants were sprayed until wet with one of five treatments. Lane 1: water-only control. Lane 2: treatment with 3,500 ppm of PAA. Lane 3: treatment with 10,000 ppm of PAA. Lane 4: treatment with 3,500 ppm of PAA plus 200 ppm of inducer mixture. Lane 5: treatment with 10,000 ppm of PAA plus 200 ppm of inducer mixture. Lane 6: treatment with 200 ppm of inducer mixture, without presence of PAA.
Bean plants were grown and treated as in Example 2. Total RNA was extracted and gels were loaded, run, and analyzed following the procedures discussed in Example 2. Probes for HYP were prepared following the procedures set forth in Blee and Anderson, supra.

CC(=O)OO [peracetic acid]
mRNA for PAL genes ([1]; peracetic acid 3,500 ppm, 24 hours, FIG. 2 lane 2): increase in mRNA for PAL genes over that of the water control | mRNA for PAL genes ([1]; peracetic acid 10,000 ppm, compared to 3,500 ppm, FIG. 2 lane 3): substantial increase | PR-1a gene RNA expression ([2]; peracetic acid 3,500 ppm, leaves sprayed, RNA after 24 hours, FIG. 1 lane 1): increased | PR-1a gene RNA expression ([2]; peracetic acid 10,000 ppm, 24 hours, FIG. 1 lane 2): higher amounts | RNA levels from HYP genes ([3]; peracetic acid 3,500 ppm, FIG. 3 lane 2): increase in RNA levels from HYP genes over that of the water control | RNA levels from HYP genes ([3]; peracetic acid 10,000 ppm, compared to 3,500 ppm, FIG. 3 lane 3): substantially more hybridizing RNA
